Test results reported in the supplement of paper PMC10307832.

Assays:
Assay in all cases: relative viability (nuclei count vs DMSO), 5 days (fraction); higher = more cells survive
[1] = compound: CS(=O)(=O)N1CCN(Cc2cc3nc(-c4cccc5[nH]ncc45)nc(N4CCOCC4)c3s2)CC1 [Pictilisib] + COc1cc2c(Oc3ccc(NC(=O)C4(C(=O)Nc5ccc(F)cc5)CC4)cc3F)ccnc2cc1OCCCN1CCOCC1 [Foretinib] (partner 0.25 µM)
How it was run: (§1)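 Lung cancer cell lines in 1536-well plates were dosed by pin tool the day after seeding, either with one drug alone or with a fixed anchor-drug dose plus five library-drug doses (not always all listed) in √10 steps. After 5 days, cells were fixed and their nuclei stained in one step (final 0.05% Triton X-100, 1% formaldehyde, 1 ug/ml Hoechst), then counted on 4× images. Relative viability is the nuclei count in treated wells divided by that in vehicle wells. Values are medians of duplicate plates.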

[2] = compound: CS(=O)(=O)N1CCN(Cc2cc3nc(-c4cccc5[nH]ncc45)nc(N4CCOCC4)c3s2)CC1 [Pictilisib] + C[C@]1(O)C[C@@H](c2nc(-c3ccc4ccc(-c5ccccc5)nc4c3)c3c(N)nccn32)C1 [Linsitinib] (partner 1 µM)
How it was run: as §1

[3] = compound: NC1(c2ccc(-c3nc4ccn5c(=O)[nH]nc5c4cc3-c3ccccc3)cc2)CCC1 [MK-2206] + CS(=O)(=O)N1CCN(Cc2cc3nc(-c4cccc5[nH]ncc45)nc(N4CCOCC4)c3s2)CC1 [Pictilisib] (partner 1 µM)
How it was run: as §1

[4] = compound: NC1(c2ccc(-c3nc4ccn5c(=O)[nH]nc5c4cc3-c3ccccc3)cc2)CCC1 [MK-2206] + Cc1nc(Nc2ncc(C(=O)Nc3c(C)cccc3Cl)s2)cc(N2CCN(CCO)CC2)n1 [Dasatinib] (partner 0.075 µM)
How it was run: as §1

[5] = compound: NC1(c2ccc(-c3nc4ccn5c(=O)[nH]nc5c4cc3-c3ccccc3)cc2)CCC1 [MK-2206] + N=C(N)NC(=N)NCCc1ccccc1 [Phenformin] (partner 250 µM)
How it was run: as §1

Cell Line	relative viability ([1]; first compound 0.02 µM)	relative viability ([1]; first compound 0.06325 µM)	relative viability ([1]; first compound 0.6325 µM)	relative viability ([1]; first compound 2 µM)	relative viability ([2]; first compound 0.02 µM)	relative viability ([2]; first compound 0.06325 µM)	relative viability ([2]; first compound 0.6325 µM)	relative viability ([2]; first compound 2 µM)	relative viability ([3]; first compound 0.01 µM)	relative viability ([3]; first compound 0.03162 µM)	relative viability ([3]; first compound 0.3162 µM)	relative viability ([3]; first compound 1 µM)	relative viability ([4]; first compound 0.01 µM)	relative viability ([4]; first compound 0.03162 µM)	relative viability ([4]; first compound 0.3162 µM)	relative viability ([4]; first compound 1 µM)	relative viability ([5]; first compound 0.01 µM)	relative viability ([5]; first compound 0.03162 µM)	relative viability ([5]; first compound 0.3162 µM)	relative viability ([5]; first compound 1 µM)
LOU-NH91	0.73	0.886	0.834	0.738	1.02	0.918	0.798	0.557	0.551	0.479	0.461	0.474	0.628	0.638	0.571	0.375	0.682	0.727	0.683	0.555
LXF-289	1.01	0.931	0.957	0.926	0.989	0.95	0.973	0.771	0.755	0.821	0.748	0.705	0.212	0.251	0.254	0.203	0.506	0.542	0.542	0.548
NCI-H460	1.01	0.978	0.883	0.243	0.78	0.733	0.154	0.0347	0.355	0.307	0.294	0.222	0.417	0.579	0.37	0.338	0.489	0.613	0.521	0.45
NCI-H1792	–	–	–	–	0.502	0.547	0.446	0.262	0.27	0.271	0.251	0.283	0.758	0.845	0.913	0.819	0.329	0.351	0.161	0.184
EMC-BAC-2	0.946	0.922	0.813	0.664	0.809	0.787	0.716	0.538	0.54	0.574	0.515	0.441	0.266	0.334	0.335	0.312	0.526	0.546	0.475	0.431
CAL-12T	1.09	1.14	1.08	0.918	0.986	0.732	0.807	0.424	0.58	0.455	0.465	0.229	0.486	0.504	0.355	0.345	0.492	0.561	0.626	0.564
ChaGo-K-1	0.896	0.924	0.838	0.721	–	–	–	–	0.914	0.981	0.692	0.401	0.61	0.721	0.55	0.447	0.524	0.488	0.46	0.497
COR-L 105	1.08	1.09	0.996	0.49	0.882	0.933	0.819	0.486	0.381	0.414	0.408	0.425	0.411	0.409	0.305	0.289	0.51	0.472	0.392	0.489
